Broadly, the pIC50 is the negative decadic logarithm of the IC50, by convention in mol/L. Lower therefore signals a high IC50.

Structures are written as SMILES. pIC50: −log10 of the molar value. Activity calls are given as the source filed them. The calls are words filed in the database; no cut-off is given here.

Data on 22 compounds can be found in ChEMBL document CHEMBL4613256, “Megastigmane Derivatives from the Cladodes of Opuntia humifusa and Their Nitric Oxide Inhibitory Activities in Macrophages” (J Nat Prod, 2020).

Data set [1] relates to RAW264.7. Kind of data set: Cytotoxicity against mouse RAW264.7 cells assessed as reduction in cell viability at 6.25 to 100 uM after 24 hrs by EZ-Cytox cell viability assay. Particulars: raw264.7, 24 h. Format: cell-based.
Data set [2] has as its system RAW264.7. Kind of data set: Inhibition of LPS-induced NO production in mouse RAW264.7 cells by Griess reagent based assay. Format: functional, cell-based.
For data set [3], the system named is RAW264.7. Kind of data set: Antiinflammatory activity against mouse RAW264.7 cells assessed as reduction in LPS-induced iNOS protein expression at 25 to 100 uM after 24 hrs by Western blot analysis. Format: functional, cell-based.
The subject of data set [4] is RAW264.7. Kind of data set: Antiinflammatory activity against mouse RAW264.7 cells assessed as reduction in LPS-induced iNOS protein expression at 10 to 50 uM after 24 hrs by Western blot analysis. Format: functional, cell-based. For orientation: In western blotting, separated proteins are transferred to a membrane and probed.

Regarding `CC1=CC(=O)CC(C)(C)[C@H]1/C=C/[C@@H](CO)O[C@@H]1O[C@H](CO)[C@@H](O)[C@H](O)[C@H]1O`, the Activity result in the data set on RAW264.7 [1] is given as “Non-Toxic”.

`O=C1C[C@@H](c2cc(O)cc(O)c2)Oc2cc(O)cc(O)c21`: the Activity result in the data set with RAW264.7 [1] is given as “Non-Toxic”.

As for `O=c1c(O)c(-c2ccc(O)c(O)c2)oc2cc(O)cc(O)c12` [QUERCETIN], the pIC50 with RAW264.7 [2] was 4.64.

As for `COc1cc(C(C)=O)ccc1O[C@@H]1O[C@H](CO)[C@@H](O)[C@H](O)[C@H]1O` [ANDROSIN], in the data set on RAW264.7 [1], the Activity entry was “Non-Toxic”.

Turning to `CC1=CC(=O)CC(C)(C)[C@@]1(O)/C=C/[C@H](CO)O[C@@H]1O[C@H](CO)[C@@H](O)[C@H](O)[C@H]1O`, the Activity entry with RAW264.7 [1] is reported as “Non-Toxic”.

In the case of `O=C1c2c(O)cc(O)cc2O[C@H](c2ccc(O)cc2)[C@H]1O` [DIHYDROKAEMPFEROL], the Activity result in the data set on RAW264.7 [1] was “Non-Toxic”.

In the case of `COc1cc(/C=C/CO)cc(OC)c1O[C@@H]1O[C@H](CO)[C@@H](O)[C@H](O)[C@H]1O` [SYRINGIN], in the data set with RAW264.7 [1], the Activity entry is listed as “Non-Toxic”.

`CC1=CC(=O)CC(C)(C)[C@@H]1/C=C/[C@H](CO)O[C@@H]1O[C@H](CO)[C@@H](O)[C@H](O)[C@H]1O`: in the data set with RAW264.7 [1], the Activity entry is given as “Non-Toxic”.

Regarding `CC1=CC(=O)CC(C)(C)[C@H]1CC[C@@H](CO)O[C@@H]1O[C@H](CO)[C@@H](O)[C@H](O)[C@H]1O`, the Activity entry in the data set on RAW264.7 [1] is recorded as “Non-Toxic”.

As for `CC1=CC(=O)CC(C)(C)[C@@]1(O)/C=C/[C@H](C)O[C@@H]1O[C@H](CO)[C@@H](O)[C@H](O)[C@H]1O` [6S,9S-ROSEOSIDE], the Activity result with RAW264.7 [1] is recorded as “Non-Toxic”.

For the compound `COc1cc(-c2oc3cc(O)cc(O)c3c(=O)c2O[C@@H]2O[C@H](CO)[C@@H](O)[C@H](O)[C@H]2O)ccc1O[C@@H]1O[C@H](CO)[C@@H](O)[C@H](O)[C@H]1O`, in the data set on RAW264.7 [1], the Activity entry is on record as “Non-Toxic”.

On to `C[C@@H](/C=C/[C@H]1C(CO)=CC(=O)CC1(C)C)O[C@@H]1O[C@H](CO)[C@@H](O)[C@H](O)[C@H]1O`, for which the Activity entry with RAW264.7 [1] is reported as “Non-Toxic”.

`O=C1c2c(O)cc(O)cc2O[C@H](c2ccc(O)c(O)c2)[C@H]1O` [(+)-TAXIFOLIN]: the Activity result with RAW264.7 [1] is given as “Non-Toxic”. In the data set with RAW264.7 [2], the negative-log IC50 (pIC50) is 4.09 and the inhibition result is “Dose-dependent effect”. Moreover, the outcome in the data set with RAW264.7 [3] was Active.

Turning to `COc1cc(/C=C/C(=O)O)cc(OC)c1O[C@@H]1O[C@H](CO)[C@@H](O)[C@H](O)[C@H]1O`, the Activity result in the data set with RAW264.7 [1] is listed as “Non-Toxic”.

In the case of `COc1cc(/C=C/C(=O)O[C@@H]2O[C@H](CO)[C@@H](O)[C@H](O)[C@H]2O)ccc1O`, the Activity entry in the data set with RAW264.7 [1] is listed as “Non-Toxic”.

Regarding `COc1cc(-c2oc3cc(O)cc(O)c3c(=O)c2O[C@@H]2O[C@H](CO)[C@@H](O)[C@H](O)[C@H]2O)ccc1O`, the Activity entry in the data set on RAW264.7 [1] is “Non-Toxic”.

For the compound `COc1cc([C@H]2OC[C@H]3[C@@H]2CO[C@@H]3c2cc(OC)c(O[C@@H]3O[C@H](CO)[C@@H](O)[C@H](O)[C@H]3O)c(OC)c2)cc(OC)c1O`, the Activity result with RAW264.7 [1] is recorded as “Non-Toxic”.

As to `CC1=CC(=O)CC(C)(C)[C@H]1CC[C@@H](O)CO[C@@H]1O[C@H](CO)[C@@H](O)[C@H](O)[C@H]1O`, the Activity result in the data set on RAW264.7 [1] is listed as “Non-Toxic”.

For the compound `CC1=CC(=O)CC(C)(C)[C@H]1CC[C@@H](O)CO`, the Activity result in the data set on RAW264.7 [1] is on record as “Non-Toxic”.

For `O=C1c2c(O)cc(O[C@@H]3O[C@H](CO)[C@@H](O)[C@H](O)[C@H]3O)cc2O[C@H](c2ccc(O)c(O)c2)[C@H]1O`, the Activity result in the data set with RAW264.7 [1] was “Non-Toxic”. Further, in the data set with RAW264.7 [2], the pIC50 is 4.36 and the inhibition entry is “Dose-dependent effect”. In addition, the outcome with RAW264.7 [4] was Active.

`COc1cc(-c2oc3cc(O)cc(O)c3c(=O)c2O[C@@H]2O[C@H](CO[C@@H]3O[C@@H](C)[C@H](O)[C@@H](O)[C@H]3O)[C@@H](O)[C@H](O)[C@H]2O)ccc1O` [NARCISSIN]: the Activity result in the data set with RAW264.7 [1] is “Non-Toxic”.

`CC(C)(O)c1ccc(CO[C@@H]2O[C@H](CO)[C@@H](O)[C@H](O)[C@H]2O)cc1`: the Activity entry in the data set on RAW264.7 [1] is on record as “Non-Toxic”.
